{"source": "patent US9717714B2", "about": "“Spirocyclic CETP inhibitors” (Merck Sharp & Dohme Corp., priority 2012, dated 2017)", "key": {"[1]": {"target": "CETP (Homo sapiens (Human), UniProt P11597)", "sequence (P11597 18-493)": "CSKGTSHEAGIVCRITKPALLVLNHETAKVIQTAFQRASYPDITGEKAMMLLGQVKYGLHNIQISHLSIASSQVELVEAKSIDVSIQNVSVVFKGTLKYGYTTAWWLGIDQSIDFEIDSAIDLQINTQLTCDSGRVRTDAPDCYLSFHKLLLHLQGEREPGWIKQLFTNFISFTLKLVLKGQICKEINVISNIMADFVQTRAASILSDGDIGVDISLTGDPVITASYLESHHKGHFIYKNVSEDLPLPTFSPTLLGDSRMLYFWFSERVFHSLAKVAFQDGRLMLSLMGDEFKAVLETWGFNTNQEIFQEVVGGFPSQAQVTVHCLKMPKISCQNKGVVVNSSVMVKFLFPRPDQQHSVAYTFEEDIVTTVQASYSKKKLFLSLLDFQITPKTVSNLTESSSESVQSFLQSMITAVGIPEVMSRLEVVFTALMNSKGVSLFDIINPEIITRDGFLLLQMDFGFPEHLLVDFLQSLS", "assay": "Scintillation Proximity Assay (SPA) for CETP activity", "format": "biochemical", "settings": "15 nM CETP", "protocol": "Protocol: Scintillation Proximity Assay (SPA) for CETP Activity\nFirst, low density lipoprotein (LDL) (Meridian) was biotinylated by incubating LDL with biotin for 1 hour on ice, after which it was dialyzed to remove free biotin. Then compounds at varying concentrations were incubated with 15 nM CETP (reagent production group, In Vitro Pharmacology, MRL Rahway) and 50 ug/ml of the biotinylated LDL in 50 mM HEPES, 150 mM NaCl, pH 7.4, for 1 hour at 37° C. The reaction was started by adding ^3H-cholesterol ester high density lipoprotein (HDL) (American Radiochemicals Corp) at a concentration of ˜0.6 nM. The reaction proceeded for 2 hours at 37° C., after which time it was quenched by the addition of 12% acetic acid. PVT streptavadin-coated scintillation proximity beads, which had been brought to room temperature, were then added at a concentration of 4 mg/ml. The assay was then mixed and counted after one half hour in a Microbeta plate reader."}, "[2]": {"target": "endogenous CETP from serum (Homo sapiens (Human), UniProt P11597)", "sequence (P11597 18-493 limits assumed)": "as the sequence (P11597 18-493) above", "assay": "RTA assay in 95% human serum (CETP-catalyzed CE and TG transfer, endogenous CETP)", "format": "biochemical", "settings": "generally RTA assay in 95% human serum; read-out: IC50", "description": "In Vitro Radioactive Assays of CETP-Catalyzed CE and TG Transfer (RTA Assay)\nReagents and sources are: [3H] cholesteryl oleate (GE #TRK.886), [3H] Triolein (Perkin-Elmer NET-431), Butylated hydroxyl toluene (Aldrich, #D4740-4), DOPC (Sigma, #P6354), Sodium Bromide (Fisher scientific #S255-500), PEG 8000 (Fisher, #BP233-1), and human HDL (Intracel Corp #RP-036).\nBoth assays measure the transfer of [3H] cholesteryl oleate or [3H] triolein from exogenous LDL to HDL.\nRadiolabeled donor particles are generated by first combining 100 μl of 200 μM butylated hydroxyl toluene in CHCl3, 216 μL of 21.57 mM DOPC in EtOH, and either 500 μCi [3H]-triolein (Perkin Elmer #NET-431) or 500 μCi [3H]-cholesteryl oleate (GE #TRK886) in a glass tube. Reagents are mixed, dried under nitrogen, and then resuspended in 2 mL of 50 mM Tris, 27 μM EDTA at pH 7.4. After a brief vortex, the solution is sonicated until clear and mixed with 20 mL of fresh human serum. The mixture is incubated overnight at 37° C. The [3H] labeled LDL substrate is separated at 1.063 g/ml density by sequential ultracentrifugal flotation in NaBr according to the method of Havel, Eder, et al., 1955, and Chapman, Goldstein, et al., 1981. Once isolated the particles are dialyzed 3× in CETP buffer (50 mM Tris, pH 7.4, 100 mM NaCl, 1 mM EDTA). Human HDL is purchased from Intracel and used as the acceptor particles.\nTransfer assays are performed in a 96-well v-bottom polypropylene plate. For the RTA using recombinant CETP (2% RTA), an assay cocktail is prepared with the final concentrations 128 μg/mL HDL, 20 nM rCETP, 2% human serum, and 1×CETP buffer. 1 μL of each test compound diluted in DMSO is added to 47 μL of assay cocktail per well and incubated at 37° C. for 1 hour. To initiate the transfer reaction, 2 μL radiolabeled LDL is added. After an additional 60 min of incubation at 37° C., the transfer action is terminated by precipitation of LDL with an equal volume of 20% W/V PEG 8000. The plates are centrifuged at 2000 rpm for 30 minutes at 4° C. A 40 μL aliquot of the HDL-containing supernatant is transferred to a Packard Optiplate™ with 200 μL of MicroScint™ 20. After mixing, plates are counted by liquid scintillation. Counts present in the supernatant for blanks (wells containing only HDL acceptor, CETP buffer and DMSO) are subtracted from those containing test compounds and used to correct for non-specific transfer.\nFor the transfer assay using endogenous CETP from serum (95% RTA), the same procedure is used except that human serum is added such that a final concentration of serum of 95% of the total assay volume is achieved, yielding a concentration of approximately 15 nM endogenous CETP in the assay. This is then combined with HDL and CETP buffer and the reaction proceeds as above and is terminated as described.\nComparison of the counts of samples with inhibitors to an uninhibited (DMSO only) positive control yield a percent inhibition. A plot of percent inhibition vs. log of inhibitor concentration, fit to a Sigmoidal 4 parameter equation is used to calculate IC50.\nStarting materials are commercially available or are made using known procedures or as shown below. The examples may be synthesized according to the general schemes provided below and through the synthetic intermediates that are described. […] When compounds of Formula I or Formula II are mentioned herein, such compounds include compounds defined generically by Formula I or II and also the specific examples disclosed herein."}, "[3]": {"settings": "patients on baseline statin therapy, compared with just a statin; cited from earlier work"}}, "data": [{"smiles": "COc1ccc(-c2ccc(C(=O)O)cc2C)cc1-c1cnc(N(C)C)nc1CN1C(=O)O[C@@H](c2cc(C(F)(F)F)cc(C(F)(F)F)c2)C12CC2", "note": "[Example 8, 3′-[4-({(7S)-7-[3,5-bis(trifluoromethyl)phenyl]-5-oxo-6-oxa-4-azaspiro[2.4]hept-4-yl}methyl)-2-(dimethylamino)pyrimidin-5-yl]-4′-methoxy-2-methylbiphenyl-4-carboxylic acid]", "values": [{"measurement": "IC50", "setting": "[1]", "result": 6.3, "unit": "µM"}]}, {"smiles": "COC(=O)c1ccc(-c2ccc(OC)c(-c3cnc(SC)nc3CN3C(=O)O[C@H](c4cc(C(F)(F)F)cc(C(F)(F)F)c4)C34CC4)c2)c(C)c1", "note": "[Example 18, methyl 3′-[4-({(7R)-7-[3,5-bis(trifluoromethyl)phenyl]-5-oxo-6-oxa-4-azaspiro[2.4]hept-4-yl}methyl)-2-(methylsulfanyl)pyrimidin-5-yl]-4′-methoxy-2-methylbiphenyl-4-carboxylate]", "values": [{"measurement": "IC50", "setting": "[2]", "result": 0.596, "unit": "µM"}]}, {"smiles": "COc1cc(F)c(C(C)C)cc1-c1ccc(C(F)(F)F)cc1CN1C(=O)O[C@H](c2cc(C(F)(F)F)cc(C(F)(F)F)c2)[C@@H]1C", "note": "[anacetrapib]", "values": [{"measurement": "decrease of LDL-C", "setting": "[3]", "result": 40, "unit": "%"}, {"measurement": "increase of HDL-C", "setting": "[3]", "result": 138, "unit": "%"}]}]}
